Read-outs that look alike come from different tables or passages of the source.
Columns and labels:
[1] = target: T1, human adenosine A2A receptor (Homo sapiens, UniProt P29274); test: Human adenosine A2A receptor [3H]-SCH-58261 binding assay
T1 construct: expressed in transfected cells; host or cells: CHO cells, Semliki Forest virus expression system; membrane preparation

[2] = target: T2, HA1 adenosine receptor (Homo sapiens, UniProt P30542); test: Human adenosine A1 receptor affinity (Ki hA1); assay type: binding
T2 sequence (P30542 1-326): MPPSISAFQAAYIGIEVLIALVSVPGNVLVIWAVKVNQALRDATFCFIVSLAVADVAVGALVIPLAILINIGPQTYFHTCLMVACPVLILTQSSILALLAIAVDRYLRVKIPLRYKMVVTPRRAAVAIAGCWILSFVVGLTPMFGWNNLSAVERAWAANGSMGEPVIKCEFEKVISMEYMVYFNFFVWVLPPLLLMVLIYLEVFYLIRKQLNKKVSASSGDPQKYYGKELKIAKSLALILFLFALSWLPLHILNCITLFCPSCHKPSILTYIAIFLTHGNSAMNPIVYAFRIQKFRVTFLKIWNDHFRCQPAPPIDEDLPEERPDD

[3] = affinity to human adenosine A2A receptor, read-out: Ki HA2A
[4] = calculated ratio of the affinity to the HA1 receptor to the HA2a receptor
[5] = affinity to human adenosine A1 receptor
[6] = recombinant human A2A in CHO cell membranes, [3H]-SCH-58261, Cheng-Prussoff, read-out: Ki hA2A

T1 sequence (P29274 whole entry): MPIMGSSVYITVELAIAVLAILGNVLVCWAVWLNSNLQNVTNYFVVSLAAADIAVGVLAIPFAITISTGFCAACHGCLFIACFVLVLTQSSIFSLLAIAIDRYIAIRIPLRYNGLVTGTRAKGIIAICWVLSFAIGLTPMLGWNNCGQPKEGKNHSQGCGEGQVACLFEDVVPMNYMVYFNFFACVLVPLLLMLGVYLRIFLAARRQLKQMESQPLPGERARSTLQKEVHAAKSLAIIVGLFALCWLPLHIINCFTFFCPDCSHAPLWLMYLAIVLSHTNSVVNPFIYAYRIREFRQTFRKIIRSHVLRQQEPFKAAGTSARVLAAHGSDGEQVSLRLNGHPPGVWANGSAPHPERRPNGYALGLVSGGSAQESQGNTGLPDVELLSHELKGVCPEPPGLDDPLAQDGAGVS

With `Nc1cc(C(=O)NCc2ccccc2Br)cc2nc(-c3cc(Br)co3)nn12` [Example 175, 5-Amino-2-(4-bromo-furan-2-yl)-[1,2,4]triazolo[1,5-a]pyridine-7-carboxylic acid 2-bromo-benzylamide] the Ki [1, 3] was 14.6 nM, the “selectivity (A1/A2a)” value [1, 4] was 1.5 and the Ki [2, 5] was 22.6 nM.
`COc1ccccc1CNC(=O)c1cc(N)n2nc(-c3ccoc3)nc2c1` [Example 228, 5-Amino-2-furan-3-yl-[1,2,4]triazolo[1,5-a]pyridine-7-carboxylic acid 2-methoxy-benzylamide] was tested, and the Ki [1, 3] was 30.5 nM, the “selectivity (A1/A2a)” value [1, 4] was 5.4 and the Ki [2, 5] was 164 nM.
In the case of `C[C@@H]1CC[C@@H](C)N1C(=O)c1cc(N)n2nc(-c3ccc(Br)o3)nc2c1` [Example 359, [5-Amino-2-(5-bromo-furan-2-yl)-[1,2,4]triazolo[1,5-a]pyridin-7-yl]-[(2R,5R)-trans-2,5-dimethyl-pyrrolidin-1-yl]-methanone], the Ki [1, 3] is reported as 7.3 nM, the “selectivity (A1/A2a)” value [1, 4] is reported as 128.0 and the Ki [2, 5] is reported as 934 nM.
`CCN(C(=O)c1cc(N)n2nc(-c3ccc(OC)s3)nc2c1)C(C)C` [Example 65, 5-Amino-2-(5-methoxy-thiophen-2-yl)-[1,2,4]triazolo[1,5-a]pyridine-7-carboxylic acid ethyl-isopropyl-amide] was tested, and the Ki [1, 3] was 51.5 nM, the “selectivity (A1/A2a)” value [1, 4] was 4.1 and the Ki [2, 5] was 211 nM.
In the case of `COc1ccc(-c2nc3cc(C(=O)N4CCCCC4)cc(N)n3n2)s1` [Example 66, [5-Amino-2-(5-methoxy-thiophen-2-yl)-[1,2,4]triazolo[1,5-a]pyridin-7-yl]-piperidin-1-yl-methanone], the Ki [1, 3] is reported as 174 nM, the “selectivity (A1/A2a)” value [1, 4] is reported as 3.6 and the Ki [2, 5] is reported as 623 nM.
In the case of `Nc1cc(C(=O)N2CC=C(c3ccccc3)CC2)cc2nc(-c3ccc(Cl)o3)nn12` [Example 263, [5-Amino-2-(5-chloro-furan-2-yl)-[1,2,4]triazolo[1,5-a]pyridin-7-yl]-(4-phenyl-3,6-dihydro-2H-pyridin-1-yl)-methanone], the Ki [1, 3] is reported as 39.8 nM, the “selectivity (A1/A2a)” value [1, 4] is reported as 7.6 and the Ki [2, 5] is reported as 304 nM.
`Nc1cc(C(=O)N(CC(F)(F)F)CC(F)(F)F)cc2nc(-c3ccc(Br)o3)nn12` [Example 311, 5-Amino-2-(5-bromo-furan-2-yl)-[1,2,4]triazolo[1,5-a]pyridine-7-carboxylic acid bis-(2,2,2-trifluoro-ethyl)-amide] was tested, and the Ki [1, 3] was 25.8 nM, the “selectivity (A1/A2a)” value [1, 4] was 22.3 and the Ki [2, 5] was 577 nM.
`CN(CC1CC1)C(=O)c1cc(N)n2nc(-c3ccc(Cl)o3)nc2c1` [Example 247, 5-Amino-2-(5-chloro-furan-2-yl)-[1,2,4]triazolo[1,5-a]pyridine-7-carboxylic acid cyclopropylmethyl-methyl-amide] was tested, and the Ki [1, 3] was 9.2 nM, the “selectivity (A1/A2a)” value [1, 4] was 17.6 and the Ki [2, 5] was 161 nM.
For `Cc1ccc(-c2nc3cc(C(=O)NCc4ccc(Cl)cc4)cc(N)n3n2)o1` [Example 212, 5-Amino-2-(5-methyl-furan-2-yl)-[1,2,4]triazolo[1,5-a]pyridine-7-carboxylic acid 4-chloro-benzylamide], the Ki [1, 3] was 190 nM, the “selectivity (A1/A2a)” value [1, 4] was 3.3 and the Ki [2, 5] was 634 nM.
With `C#CCN(C)C(=O)c1cc(N)n2nc(-c3nccs3)nc2c1` [Example 282, 5-Amino-2-thiazol-2-yl-[1,2,4]triazolo[1,5-a]pyridine-7-carboxylic acid methyl-prop-2-ynyl-amide] the Ki [1, 3] was 85.2 nM, the “selectivity (A1/A2a)” value [1, 4] was 48.5 and the Ki [2, 5] was 4130 nM.
For `CCC1CCC(C)N(C(=O)c2cc(N)n3nc(-c4ccccn4)nc3c2)C1` (stereo not drawn) [Example 430, (5-Amino-2-pyridin-2-yl-[1,2,4]triazolo[1,5-a]pyridin-7-yl)-(5-ethyl-2-methyl-piperidin-1-yl)-methanone], the “selectivity (A1/A2a)” value ([1]; ratio KiHA1 divided by KiHA2A) was 10.8, the Ki [1, 6] was 63.6 nM and the Ki [2] was 689 nM.
For `Nc1cc(C(=O)N2CCC3CCCCC3C2)cc2nc(-c3nccs3)nn12` (stereo not drawn) [Example 380, (5-Amino-2-thiazol-2-yl-[1,2,4]triazolo[1,5-a]pyridin-7-yl)-(octahydro-isoquinolin-2-yl)-methanone], the “selectivity (A1/A2a)” value ([1]; ratio KiHA1 divided by KiHA2A) was 24.8, the Ki [1, 6] was 76.9 nM and the Ki [2] was 1910 nM.
